Measured values published in PubChem BioAssay (NCI).
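96-well plates; 48 h exposure; 5 concentrations. Endpoints by linear interpolation between flanking doses. Not reached: highest tested concentration assigned. GI50 marks 50% less growth. The concentration for full growth arrest is given as TGI.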

Columns and labels:
Assay in all cases: NCI tumour cell line growth inhibition, 48 h
786-0 renal = tested on: 786-0 renal
ACHN renal = tested on: ACHN renal
BT-549 breast = tested on: BT-549 breast
EKVX NSCLC = tested on: EKVX NSCLC
KM12 colon = tested on: KM12 colon
MALME-3M melanoma = tested on: MALME-3M melanoma
NCI/ADR-RES ovarian = tested on: NCI/ADR-RES ovarian
RPMI-8226 leukemia = tested on: RPMI-8226 leukemia
RXF 393 renal = tested on: RXF 393 renal
DU-145 prostate = tested on: DU-145 prostate

Structure (SMILES) | GI50 (786-0 renal) | TGI (786-0 renal) | GI50 (ACHN renal) | TGI (ACHN renal) | GI50 (BT-549 breast) | TGI (BT-549 breast) | GI50 (EKVX NSCLC) | TGI (EKVX NSCLC) | GI50 (KM12 colon) | TGI (MALME-3M melanoma) | GI50 (NCI/ADR-RES ovarian) | GI50 (RPMI-8226 leukemia) | TGI (RPMI-8226 leukemia) | GI50 (RXF 393 renal) | TGI (RXF 393 renal) | TGI (KM12 colon) | GI50 (MALME-3M melanoma) | TGI (NCI/ADR-RES ovarian) | GI50 (DU-145 prostate) | TGI (DU-145 prostate)
COc1ccc(N(C)c2nc(C)nc3ccccc23)cc1 | < 0.01 µM | 55.7 µM | < 0.01 µM | > 91.8 µM | < 0.01 µM | 36.9 µM | < 0.01 µM | 40.8 µM | < 0.01 µM | 39.5 µM | < 0.01 µM | < 0.01 µM | 18 µM | < 0.01 µM | > 100 µM |  |  |  |  | 
NNC(=O)/C(=C/c1cccc([N+](=O)[O-])c1)NC(=O)c1ccccc1 |  | > 100 µM |  | > 100 µM |  |  |  | > 100 µM |  | > 100 µM |  |  | > 100 µM |  | > 100 µM | > 100 µM |  |  |  | 
O/N=C1/C(=C/c2ccc(F)cc2)CCCC1C(NO)c1ccc(F)cc1 (stereo unspecified) |  | > 100 µM |  | > 100 µM |  |  |  | > 100 µM |  | > 100 µM |  |  | 49.8 µM |  | 86.6 µM | 52.6 µM |  |  |  | 
C[C@@H](c1ccc2nccn2c1)n1nnc2ncc(-c3cnn(C)c3)nc21 | > 100 µM | > 100 µM | > 100 µM | > 100 µM | 91.7 µM | > 100 µM | > 100 µM | > 100 µM | 43.3 µM | > 100 µM | > 100 µM | 47.6 µM | > 100 µM | > 100 µM | > 100 µM | > 100 µM | > 100 µM | > 100 µM |  | 
CCCCCCC(=O)C/C(CCC(=O)N(Cc1ccccc1)Cc1ccccc1)=N\Nc1ccc([N+](=O)[O-])cc1[N+](=O)[O-] |  | > 100 µM |  | > 100 µM |  |  |  | > 100 µM |  | > 100 µM |  |  | > 100 µM |  | > 100 µM | > 100 µM |  |  |  | 
COc1cc(C2C(Cl)C(=O)N2n2cnc3ccccc3c2=O)cc(OC)c1OC (stereo unspecified) |  | > 100 µM |  | > 100 µM |  |  |  | > 100 µM |  | > 100 µM |  |  | > 100 µM |  | > 100 µM | > 100 µM |  |  |  | 
CCOP(=O)(OCC)C1C(=O)O[C@H]2CCCC[C@@H]12 (stereo partly specified) |  | > 100 µM |  | > 100 µM |  |  |  | > 100 µM |  | > 100 µM |  |  | > 100 µM |  | > 100 µM | > 100 µM |  |  |  | 
OB([O][Hg][c]1ccccc1)[O][Hg][c]1ccccc1 | 0.281 µM | 0.856 µM | 0.493 µM | 1.39 µM | 0.226 µM | 0.779 µM |  |  | 1.59 µM | 0.788 µM | 1.69 µM | 0.211 µM | 0.592 µM | 0.229 µM | 0.829 µM | 3.04 µM | 0.244 µM | 4.45 µM | 0.873 µM | 2.29 µM
CCCCN(CCCC)C(=O)C(=O)CC(=O)c1ccc(Br)cc1 |  | > 100 µM |  | > 100 µM |  |  |  | > 100 µM |  | > 100 µM |  |  | > 100 µM |  |  | > 100 µM |  |  |  | 
CC1=C(C(=O)Nc2ccccc2)C(c2ccc3c(c2)OCO3)C(C(=O)Nc2ccccc2)=C(C)N1 |  | > 100 µM |  | > 100 µM |  |  |  | > 100 µM |  | > 100 µM |  |  | 79.4 µM |  | 50.2 µM | > 100 µM |  |  |  | 
COc1cc2cc(Oc3ccc(NC(=O)Nc4cccc(C(F)(F)F)c4)cc3)c(C)nc2cc1OCCN1CCCCC1 | 1.72 µM | 3.21 µM | 1.69 µM | 3.06 µM | 1.78 µM | 3.28 µM | 1.51 µM | 2.92 µM | 1.72 µM | 3.07 µM |  |  |  |  |  | 3.3 µM | 1.63 µM |  | 1.68 µM | 3.06 µM
C1CCC([PH+](C2CCCCC2)C2CCCCC2[PH+](C2CCCCC2)C2CCCCC2)CC1.[Au].[CH-]1CCCCC1C1CCCC[N-]1 (stereo unspecified) | 0.43 µM | 1.9 µM | 1 µM | 2.17 µM | 0.294 µM | 1.36 µM |  |  |  | 0.844 µM | 2.97 µM | 0.132 µM | > 100 µM | 0.278 µM | 1.18 µM |  | 0.208 µM | > 100 µM | 0.401 µM | 2.44 µM
CC12OC(C(=O)C13CC3)C1C(=O)c3ccccc3C(=O)C12 (stereo unspecified) | 18.2 µM | 37.6 µM |  |  | 36.2 µM | 76.9 µM | 4.48 µM | 38.4 µM | 19.9 µM | 87.1 µM | 24.5 µM |  |  | 10 µM | 24.9 µM | 52 µM | 27.9 µM | 77 µM |  | 
CC1=COC(=O)c2ccccc2N1 |  | > 100 µM |  | > 100 µM |  |  |  | > 100 µM |  | > 100 µM |  |  | > 100 µM |  | > 100 µM | > 100 µM |  |  |  | 
COc1cc2c3c(n(C)c(=O)c2cc1OC)-c1cc2c(cc1/C3=C\CCCCN)OCO2 | 5.23 µM | 19.6 µM | 9.66 µM | 26.3 µM |  |  | 18.4 µM | 57.2 µM | 1.95 µM |  | 4.74 µM | 4.44 µM | 24.7 µM | 36 µM | 57.1 µM | 7.28 µM |  | 18.1 µM | 10.5 µM | 31.4 µM
CCOC(=O)Cc1c(Cc2[nH]c(C(=O)OCc3ccccc3)c(CC(=O)OCC)c2CC(=O)OCC)[nH]c(C(=O)OCc2ccccc2)c1CC(=O)OCC |  | > 100 µM |  | > 100 µM |  |  |  |  |  | > 100 µM |  |  | > 100 µM |  |  |  |  |  |  | 
O=C1C2=C(c3ccccc31)C(c1ccc(Cl)cc1)N1C(=O)CCSC1=N2 (stereo unspecified) |  | > 100 µM |  | > 100 µM |  |  |  | > 100 µM |  | > 100 µM |  |  | > 100 µM |  |  | > 100 µM |  |  |  | 
Cc1c(NC(=O)C(=O)N=NC(=O)c2ccncc2)c(O)c2ccccc2c1O |  | 59.2 µM |  | 29.6 µM |  |  |  | 19.9 µM |  | 16.4 µM |  |  | > 82 µM |  | 32.6 µM | > 100 µM |  |  |  | 
O=C(Cc1ccccc1)NN1C(=O)C(Cl)C1c1cccc(O)c1 (stereo unspecified) |  | 31.5 µM |  | 31 µM |  |  |  | 45.7 µM |  | 76.3 µM |  |  | 10.1 µM |  | 32.3 µM |  |  |  |  | 
CC(Cl)(/C=C/Cl)C(Cl)/C=C/C(Cl)(CCl)CBr (stereo unspecified) |  | 10.8 µM |  | 18.1 µM |  |  |  | > 77.3 µM |  | 13.7 µM |  |  | 7.31 µM |  | 2.92 µM | 20.8 µM |  |  |  | 
